Measurements as given in ChEMBL document CHEMBL4190176 (Medchemcomm, 2016).

molecular target: T1, Bifunctional epoxide hydrolase 2 (Homo sapiens, UniProt P34913); test: Inhibition of recombinant human soluble epoxide hydrolase using PHOME as substrate incubated for 5 mins followed by substrate addition by fluorescence assay
T1 sequence (P34913 whole entry): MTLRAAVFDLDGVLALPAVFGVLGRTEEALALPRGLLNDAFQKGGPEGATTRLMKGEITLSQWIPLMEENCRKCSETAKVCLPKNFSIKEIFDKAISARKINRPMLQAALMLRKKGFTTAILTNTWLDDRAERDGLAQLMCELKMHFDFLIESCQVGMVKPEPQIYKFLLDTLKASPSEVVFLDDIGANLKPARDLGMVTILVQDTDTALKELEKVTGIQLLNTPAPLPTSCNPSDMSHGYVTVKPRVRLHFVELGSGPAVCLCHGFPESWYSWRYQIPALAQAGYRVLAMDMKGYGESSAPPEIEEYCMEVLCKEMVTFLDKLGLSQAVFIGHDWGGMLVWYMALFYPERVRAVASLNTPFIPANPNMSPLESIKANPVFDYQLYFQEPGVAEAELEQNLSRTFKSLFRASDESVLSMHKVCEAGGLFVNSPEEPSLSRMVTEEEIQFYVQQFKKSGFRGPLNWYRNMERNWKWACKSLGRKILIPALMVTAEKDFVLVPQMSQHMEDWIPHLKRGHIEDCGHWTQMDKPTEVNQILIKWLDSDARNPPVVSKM

Question: How did the IC50 turn out when `CCOC(=O)C1=C(c2ccccc2)NC(=O)NC1c1ccc(NC(=O)c2ccccc2C(=O)O)cc1` (stereo not drawn) was run?
Answer: Its IC50 is 1.92 nM.

Question: Which IC50 does the source give for `CCOC(=O)C1=C(c2ccccc2)NC(=O)NC1c1ccc(NC(=O)c2ccccc2)cc1` (stereo not drawn) here?
Answer: Its IC50 is 1.22 nM.

Question: For `CCOC(=O)C1=C(c2ccccc2)NC(=O)NC1c1ccc(NC(=O)c2ccc([N+](=O)[O-])cc2)cc1` (stereo not drawn), which IC50 is on record?
Answer: The IC50 was 2 nM.

Question: Which IC50 does the source give for `CCOC(=O)C1=C(c2ccccc2)NC(=O)NC1c1ccc(NC(=O)c2ccc(Cl)cc2)cc1` (stereo not drawn) here?
Answer: Its IC50 is 0.48 nM.

Question: For `CCOC(=O)C1=C(c2ccccc2)NC(=O)NC1c1ccc(NC(=O)CCC(=O)O)cc1` (stereo not drawn), which IC50 is on record?
Answer: Its IC50 is 2.22 nM.

Question: How did the IC50 turn out when `CCOC(=O)C1=C(c2ccccc2)NC(=O)NC1c1ccc(NC(=O)c2ccc(OC)cc2)cc1` (stereo not drawn) was run?
Answer: The IC50 was 1.82 nM.

Question: Which IC50 does the source give for `CCOC(=O)C1=C(c2ccccc2)NC(=O)NC1c1ccc(NC(=O)c2ccc(F)cc2)cc1` (stereo not drawn) here?
Answer: Its IC50 is 0.96 nM.

Question: For `CCOC(=O)C1=C(c2ccccc2)NC(=O)NC1c1ccc(NC(=O)c2ccc(C)cc2)cc1` (stereo not drawn), which IC50 is on record?
Answer: The IC50 was 0.48 nM.
